Laboratory results as given in US20060045953A1 (priority 2004, published 2006).

biological target: T1, hT1R1/hT1R3 umami receptor (Homo sapiens, UniProt Q7RTX0+Q7RTX1); assay: In vitro hT1R1/hT1R3 umami taste receptor activation assay (FLIPR, dose response); assay type: cell-based; settings: Table A, Umami Amides; read-out: Umami EC50
T1 construct: expressed in transfected cells; host or cells: HEK293 derivative stably expressing Gα15, clone I-17, expression induced with mifepristone
T1 sequence (Q7RTX1 21-841): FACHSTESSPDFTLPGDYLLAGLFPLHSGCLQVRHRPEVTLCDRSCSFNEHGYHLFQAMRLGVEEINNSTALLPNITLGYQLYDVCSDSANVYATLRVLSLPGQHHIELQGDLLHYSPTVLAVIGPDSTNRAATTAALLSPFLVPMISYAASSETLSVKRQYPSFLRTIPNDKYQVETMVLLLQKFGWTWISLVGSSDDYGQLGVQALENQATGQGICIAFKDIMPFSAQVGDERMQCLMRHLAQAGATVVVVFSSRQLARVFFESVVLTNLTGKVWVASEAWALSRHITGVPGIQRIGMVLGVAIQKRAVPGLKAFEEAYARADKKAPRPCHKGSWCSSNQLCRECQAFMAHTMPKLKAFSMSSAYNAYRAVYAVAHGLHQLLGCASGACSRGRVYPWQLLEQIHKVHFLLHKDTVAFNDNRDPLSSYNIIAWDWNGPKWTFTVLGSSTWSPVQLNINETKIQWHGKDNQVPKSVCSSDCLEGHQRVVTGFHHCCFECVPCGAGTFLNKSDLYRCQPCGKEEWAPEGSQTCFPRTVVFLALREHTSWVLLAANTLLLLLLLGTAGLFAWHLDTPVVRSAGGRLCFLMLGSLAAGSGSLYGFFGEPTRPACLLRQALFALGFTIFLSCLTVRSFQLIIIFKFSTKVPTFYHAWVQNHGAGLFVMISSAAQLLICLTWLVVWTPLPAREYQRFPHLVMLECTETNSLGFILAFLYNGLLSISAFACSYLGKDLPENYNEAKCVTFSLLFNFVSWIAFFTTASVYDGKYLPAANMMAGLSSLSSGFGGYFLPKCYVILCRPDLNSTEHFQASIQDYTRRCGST
T1 sequence (Q7RTX0 21-852): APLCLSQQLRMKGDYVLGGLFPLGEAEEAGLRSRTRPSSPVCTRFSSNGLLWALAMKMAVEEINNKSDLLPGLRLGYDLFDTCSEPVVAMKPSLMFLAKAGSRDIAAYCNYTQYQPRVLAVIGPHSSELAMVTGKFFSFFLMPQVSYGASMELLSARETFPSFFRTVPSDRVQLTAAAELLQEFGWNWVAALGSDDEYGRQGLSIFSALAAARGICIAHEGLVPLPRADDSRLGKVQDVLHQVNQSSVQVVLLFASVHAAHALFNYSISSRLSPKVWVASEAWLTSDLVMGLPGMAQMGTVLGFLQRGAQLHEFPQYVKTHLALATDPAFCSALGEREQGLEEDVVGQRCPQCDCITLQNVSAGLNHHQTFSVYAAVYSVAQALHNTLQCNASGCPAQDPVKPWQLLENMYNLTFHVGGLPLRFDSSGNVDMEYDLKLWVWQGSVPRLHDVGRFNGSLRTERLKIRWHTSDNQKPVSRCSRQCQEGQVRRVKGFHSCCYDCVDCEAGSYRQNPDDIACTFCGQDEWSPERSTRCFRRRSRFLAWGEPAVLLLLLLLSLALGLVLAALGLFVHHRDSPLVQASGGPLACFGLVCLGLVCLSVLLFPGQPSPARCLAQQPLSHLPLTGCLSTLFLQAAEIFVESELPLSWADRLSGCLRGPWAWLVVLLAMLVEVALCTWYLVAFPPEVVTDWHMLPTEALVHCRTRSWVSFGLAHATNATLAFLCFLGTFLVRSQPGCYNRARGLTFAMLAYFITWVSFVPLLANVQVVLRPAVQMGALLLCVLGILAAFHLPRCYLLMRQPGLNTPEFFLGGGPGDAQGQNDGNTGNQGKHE

| Compound | EC50 [nM] |
| --- | --- |
| CCOC(=O)[C@@H]1CCCC[C@H]1NC(=O)c1cc2cc(OC)ccc2o1 [Example A15, (1R,2R)-ethyl 2-(5-methoxybenzofuran-2-carboxamido)cyclohexanecarboxylate] | 1140 |
| CCC(NC(=O)c1cc2cc(OC)ccc2o1)C(C)C (centres unmarked) [Example A16, 5-methoxy-N-(2-methylpentan-3-yl)benzofuran-2-carboxamide] | 1180 |
| COc1ccc2oc(C(=O)NC(C(C)C)C(C)C)cc2c1 [Example A17, N-(2,4-dimethylpentan-3-yl)-5-methoxybenzofuran-2-carboxamide] | 1200 |
| CCCC(CC(C)C)NC(=O)c1cc2cc(OC)ccc2o1 (centres unmarked) [Example A18, 5-methoxy-N-(2-methylheptan-4-yl)benzofuran-2-carboxamide] | 1270 |
| CCCC(COC)NC(=O)c1cc2cc(OC)ccc2o1 (centres unmarked) [Example A19, 5-methoxy-N-(1-methoxypentan-2-yl)benzofuran-2-carboxamide] | 1300 |
| CCCC(CC(C)C)NC(=O)c1cc2cc(C)ccc2o1 (centres unmarked) [Example A20, 5-methyl-N-(2-methylheptan-4-yl)benzofuran-2-carboxamide] | 1320 |
| CCC(CC)NC(=O)c1cc2ccccc2o1 [Example A21, N-(pentan-3-yl)benzofuran-2-carboxamide] | 1520 |
| CCCC(CCC)NC(=O)c1ccc2ncsc2c1 [Example A22, Benzothiazole-6-carboxylic acid (1-propyl-butyl)-amide] | 1580 |
| CCCC(NC(=O)c1ccc2nc(C)oc2c1)C(C)C (centres unmarked) [Example A26, 2-methyl-N-(2-methylhexan-3-yl)benzo[d]oxazole-6-carboxamide] | 1600 |
| CCCC(CCC)NC(=O)c1ccc2nc(CC)oc2c1 [Example A27, 2-ethyl-N-(heptan-4-yl)benzo[d]oxazole-6-carboxamide] | 1610 |
| COC(=O)[C@@H](CC(C)C)NC(=O)c1ccc2oc(C)nc2c1 [Example A28, (R)-4-Methyl-2-[(2-methyl-benzooxazole-5-carbonyl)-amino]-pentanoic acid methyl ester] | 1690 |
| CCCC(CCC)NC(=O)c1ccc2ncoc2c1 [Example A29, N-(heptan-4-yl)benzo[d]oxazole-6-carboxamide] | 1910 |
| Cc1ccoc1C(=O)NC1CCCC(C)C1C (centres unmarked) [Example A32, N-(2,3-dimethylcyclohexyl)-3-methylfuran-2-carboxamide] | 1150 |
| Cc1cc(C(=O)NC2CCCCC2C)oc1C (centres unmarked) [Example A33, 4,5-dimethyl-N-(2-methylcyclohexyl)furan-2-carboxamide] | 1330 |
| COC(=O)[C@@H](CC(C)C)NC(=O)c1ccc2ncccc2c1 [Example A37, (R)-methyl 4-methyl-2-(quinoline-6-carboxamido)pentanoate] | 1500 |
| CCCC(CCC)NC(=O)c1ccc(C)s1 [Example A38, 5-Methyl-thiophene-2-carboxylic acid (1-propyl-butyl)-amide] | 1220 |
| Cc1ccc(C(=O)NC2CCCc3ccccc32)s1 (centres unmarked) [Example A39, 5-Methyl-thiophene-2-carboxylic acid (1,2,3,4-tetrahydro-naphthalen-1-yl) amide] | 1310 |
| COC(=O)[C@@H](CC(C)C)NC(=O)c1ccc2c(c1)CCO2 [Example A46, (R)-methyl 2-(2,3-dihydrobenzofuran-5-carboxamido)-4-methylpentanoate] | 1320 |
| O=C(N[C@H]1CCCc2ccccc21)c1ccc2c(c1)OCO2 [Example A47, (S)-N-(1,2,3,4-tetrahydronaphthalen-1-yl)benzo[d][1,3]dioxole-5-carboxamide] | 1330 |
| CC(CCc1ccccc1)NC(=O)c1ccc2c(c1)OCO2 (centres unmarked) [Example A48] | 1510 |

More lines, in order of falling EC50, values ahead:

| EC50 [nM] | Compound |
| --- | --- |
| 1140 | CCC(CC)NC(=O)c1cc2cc(OC)ccc2o1 [Example A13, 5-methoxy-N-(pentan-3-yl)benzofuran-2-carboxamide] |
| 1140 | COC(=O)C(CCSC)NC(=O)c1cc2cc(OC)ccc2o1 (centres unmarked) [Example A14, methyl 2-(5-methoxybenzofuran-2-carboxamido)-4-(methylthio)butanoate] |
| 1130 | CCCC(NC(=O)c1cc2cc(OC)ccc2o1)C(C)C (centres unmarked) [Example A12, 5-methoxy-N-(2-methylhexan-3-yl)benzofuran-2-carboxamide] |
| 1120 | CCCC(CC(C)C)NC(=O)c1ccc2nc(C)oc2c1 (centres unmarked) [Example A24, 2-methyl-N-(2-methylheptan-4-yl)benzo[d]oxazole-6-carboxamide] |
| 1080 | CCOc1ccc(NC(=O)c2cc(Cl)ccc2Cl)cc1 [Example A3, 2,5-dichloro-N-(4-ethoxyphenyl)benzamide] |
| 1050 | CCC(COC)NC(=O)c1cc2cc(Cl)ccc2o1 (centres unmarked) [Example A11, 5-chloro-N-(1-methoxybutan-2-yl)benzofuran-2-carboxamide] |
| 1010 | COC(=O)[C@@H](CC(C)C)NC(=O)c1ccc2[nH]ccc2c1 [Example A36, (R)-methyl 2-(1H-indole-5-carboxamido)-4-methylpentanoate] |
| 930 | COC(=O)c1ccc(NC(=O)c2c(Cl)ccc(Cl)c2OC)cc1 [Example A2, 4-(3,6-Dichloro-2-methoxy-benzoylamino)-benzoic acid methyl ester] |
| 910 | CCCC(CCC)NC(=O)c1cc2cc(OC)ccc2o1 [Example A10, N-(heptan-4-yl)-5-methoxybenzofuran-2-carboxamide] |
| 820 | CCCC(CCC)NC(=O)c1ccc2cc[nH]c2c1 [Example A35, N-(heptan-4-yl)-1H-indole-6-carboxamide] |
| 710 | COC(=O)[C@@H](CC(C)C)NC(=O)c1ccc2occc2c1 [Example A9, (R)-methyl 2-(benzofuran-5-carboxamido)-4-methylpentanoate] |
| 700 | CCCCC(CCCC)NC(=O)c1ccc2c(c1)OCO2 [Example A41, N-(nonan-5-yl)benzo[d][1,3]dioxole-5-carboxamide] |
| 620 | CCCC(CCC)NC(=O)c1cc(C)c(C)o1 [Example A31, N-(heptan-4-yl)-4,5-dimethylfuran-2-carboxamide] |
| 530 | COC(=O)[C@@H](CC(C)C)NC(=O)c1cc2ccccc2[nH]1 [Example A34, (R)-methyl 2-(1H-indole-2-carboxamido)-4-methylpentanoate] |
| 500 | CCC(CC(C)C)NC(=O)c1cc2cc(C)ccc2o1 (centres unmarked) [Example A8, 5-methyl-N-(5-methylhexan-3-yl)benzofuran-2-carboxamide] |
| 490 | CCCC(CCC)NC(=O)c1ccc(Br)o1 [Example A30, 5-bromo-N-(heptan-4-yl)furan-2-carboxamide] |
| 490 | CCCCC(NC(=O)c1ccc2c(c1)OCO2)C(=O)OC (centres unmarked) [Example A43, 2-[(Benzo[1,3]dioxole-5-carbonyl)-amino]-hexanoic acid methyl ester] |
| 460 | COC[C@@H](CC(C)C)NC(=O)c1cc2cc(OC)ccc2o1 [Example A7, (R)-5-methoxy-N-(1-methoxy-4-methylpentan-2-yl)benzofuran-2-carboxamide] |
| 380 | CCCC(CC(C)C)NC(=O)c1ccc2oc(C)nc2c1 (centres unmarked) [Example A23, 2-methyl-N-(2-methylheptan-4-yl)benzo[d]oxazole-5-carboxamide] |
| 370 | COC(=O)[C@@H](CC(C)C)NC(=O)c1ccc2ccccc2c1 [Example A40, (R)-methyl 2-(2-naphthamido)-4-methylpentanoate] |
| 350 | CC[C@@H](C)[C@@H](NC(=O)c1ccc2c(c1)OCO2)C(=O)OC [Example A42, (2R,3R)-methyl 2-(benzo[d][1,3]dioxole-5-carboxamido)-3-methylpentanoate] |
